Experiments:
[1] = test system: TrxR of SjTGR (thioredoxin glutathione reductase of Schistosoma japonicum); assay: Inhibition of TrxR activity of SjTGR; assay type: biochemical; settings: phage clone, 10^11 pfu; SjTGR 48 nM; vs activity of SjTGR without phage; repeated three times; P<0.01 vs phage library for JIPDys1, JIPDys2, JIPDys3
Description: To assess the inhibitory action of phages, the activities of TrxR, GR, and glutaredoxin (Grx) of SjTGR were assayed as described in [21]. […], phage library was used as negative phage control, and the effect of phages on the activity of SjTGR was expressed as percentage inhibition: Inhibition percentage = (activity of SjTGR – activity of SjTGR with isolated phage)/activity of SjTGR. The experiment was repeated three times.
(§1) The activities of TrxR, GR, and Grx of SjTGR were assayed with different concentrations (0.5 μM, 1 μM, and 2 μM) of the synthesized peptide JIPDys1 to determine the 50% inhibitory concentration (IC50), and the same amount of PBS was added to the system as control. The experiment was repeated three times. The IC50 values were calculated by curve fitting using the SPSS 13.0 software.
(§2) All data are given as the mean ± standard deviation (SD). The activities of TrxR, GR, and Grx of SjTGR (absorbance/S (ΔA/S)) with JIPDys1, JIPDys2, JIPDys3, and JIPDys4 were statistically compared with the negative phage control (phage library) using two-tailed Student's t-tests. The activities of TrxR, GR, and Grx of SjTGR (absorbance/S (ΔA/S)) with the synthesized peptide were statistically compared with PBS control using two-tailed Student's t-tests, too. SPSS 13.0 was used for the statistical analyses. Differences between mean values were considered to be significant at the level of 5%.

[2] = test system: GR of SjTGR (thioredoxin glutathione reductase of Schistosoma japonicum); assay: Inhibition of GR activity of SjTGR; assay type: biochemical; settings: phage clone, 10^11 pfu; SjTGR 48 nM; vs activity of SjTGR without phage; repeated three times; P<0.01 vs phage library for JIPDys1, JIPDys2
Description: To assess the inhibitory action of phages, the activities of TrxR, GR, and glutaredoxin (Grx) of SjTGR were assayed as described in [21]. […] system, phage library was used as negative phage control, and the effect of phages on the activity of SjTGR was expressed as percentage inhibition: Inhibition percentage = (activity of SjTGR – activity of SjTGR with isolated phage)/activity of SjTGR. The experiment was repeated three times.
as §1, §2

[3] = test system: Grx of SjTGR (thioredoxin glutathione reductase of Schistosoma japonicum); assay: Inhibition of Grx activity of SjTGR; assay type: biochemical; settings: phage clone, 10^11 pfu; SjTGR 48 nM; vs activity of SjTGR without phage; repeated three times; P<0.01 vs phage library for JIPDys1, JIPDys3
Description: (§3) To assess the inhibitory action of phages, the activities of TrxR, GR, and glutaredoxin (Grx) of SjTGR were assayed as described in [21]. 10 μl ([…]) of phage solution was added to the reaction system, phage library was used as negative phage control, and the effect of phages on the activity of SjTGR was expressed as percentage inhibition: Inhibition percentage = (activity of SjTGR – activity of SjTGR with isolated phage)/activity of SjTGR. The experiment was repeated three times.
as §1, §2

SjTGR [4] = assay: Phage binding to recombinant SjTGR by ELISA; set-up: species or system Schistosoma japonicum; settings: mean of triplicates; for Binding to SjTGR (ELISA OD450nm): phage 1×10^12 pfu/ml, HRP-conjugated anti-M13 antibody, TMB, positive if OD450nm 2.1 times above negative control, binding decreased with decreasing titers
Description: Phage clones were amplified according to the manual. A 96-well plate was coated with 100 μl of SjTGR solution (10 μg/ml, 0.1 M NaHCO3, pH 8.6) overnight at 4°C. After blocking with PBS containing 5% milk powder at rt for 1 h, 100 μl of phage solution with titers of 1 x 10^12, 2.5 x 10^11, 6 x 10^10, 1.5 x 10^10, and 3.75 x 10^9 pfu/ml was used per well, respectively. The phage library was set as the negative phage control. Following an incubation at 37°C for 2 h and six washes with TBST (0.5% Tween-20), 200 μl of diluted HRP-conjugated anti-M13 monoclonal antibody solution was added for 1 h at rt. Following six washes with TBST, 100 μl of substrate TMB solution was added for 10 minutes at rt. 50 μl of 2 M sulfuric acid solution (H2SO4) was added to terminate the reaction and absorbance at 450nm was measured. OD450nm values 2.1 times above the negative control value were considered positive.

SjTGR [5] = assay: Inhibition of SjTGR enzyme activity (TrxR, GR and Grx overall); assay type: biochemical, Schistosoma japonicum; settings: JIPDys1 from phage screening
Description: as §3, §1

YTMPSLTLYAMG [JIPDys3, M13 phage clone from Ph.D.-12 library displaying peptide …]
Percentage of inhibition of TrxR [1]: 54.72%
Percentage of inhibition of GR [2]: 20.88%
Percentage of inhibition of Grx [3]: 43.02%
Binding to SjTGR (ELISA OD450nm) (SjTGR [4]): bound to SjTGR

LHAETRSAMHRT [JIPDys2, M13 phage clone from Ph.D.-12 library displaying peptide …]
Percentage of inhibition of TrxR [1]: 45.24%
Percentage of inhibition of GR [2]: 69.43%
Percentage of inhibition of Grx [3]: 25.64%
Binding to SjTGR (ELISA OD450nm) (SjTGR [4]): bound to SjTGR

WPHNWWPHFKVK [JIPDys1, M13 phage clone from Ph.D.-12 library displaying peptide …]
Percentage of inhibition of TrxR [1]: 59.04%
Percentage of inhibition of GR [2]: 80.80%
Percentage of inhibition of Grx [3]: 53.56%
Binding capacity compared with the other phages (SjTGR [4]; ELISA, phage titers 3.75 x 10^9 to 1.0 x 10^12 pfu/ml): strongest binding capacity among those phages
Binding to SjTGR (ELISA OD450nm) (SjTGR [4]): bound to SjTGR
Inhibition of SjTGR activity (SjTGR [5]): more than 50%

KHMHWHPPALNT [JIPDys4, M13 phage clone from Ph.D.-12 library displaying peptide …]
Percentage of inhibition of TrxR [1]: 0.73%
Percentage of inhibition of GR [2]: 1.50%
Percentage of inhibition of Grx [3]: 1.23%
Binding to SjTGR (ELISA OD450nm) (SjTGR [4]): bound to SjTGR
